Experimental data as given in article PMC8834866, “2-Acetamido-2-deoxy-D-glucono-1,5-lactone Sulfonylhydrazones: Synthesis and Evaluation as Inhibitors of Human OGA and HexB Enzymes” (International Journal of Molecular Sciences, 2022).
“And” between values parts separate entries of the source, which are not always exact repeats. Equal entries are not always repeated.

Legend:
hOGA = molecular target: T1, hOGA (Homo sapiens, UniProt O60502); test: hOGA inhibition, 4-MU-GlcNAc fluorescent substrate, Dixon plots (competitive model); format: biochemical; conditions: for Ki(hHexB)/Ki(hOGA): ratio defines selectivity towards hOGA; for Ki: recombinant hOGA, 4-MU-GlcNAc, pH 7.5, 37 °C
T1 construct: The gene construct encoding the full-length human OGA fused to N-terminal His6-tag; His6 (N); made in house
T1 sequence (O60502 1-916): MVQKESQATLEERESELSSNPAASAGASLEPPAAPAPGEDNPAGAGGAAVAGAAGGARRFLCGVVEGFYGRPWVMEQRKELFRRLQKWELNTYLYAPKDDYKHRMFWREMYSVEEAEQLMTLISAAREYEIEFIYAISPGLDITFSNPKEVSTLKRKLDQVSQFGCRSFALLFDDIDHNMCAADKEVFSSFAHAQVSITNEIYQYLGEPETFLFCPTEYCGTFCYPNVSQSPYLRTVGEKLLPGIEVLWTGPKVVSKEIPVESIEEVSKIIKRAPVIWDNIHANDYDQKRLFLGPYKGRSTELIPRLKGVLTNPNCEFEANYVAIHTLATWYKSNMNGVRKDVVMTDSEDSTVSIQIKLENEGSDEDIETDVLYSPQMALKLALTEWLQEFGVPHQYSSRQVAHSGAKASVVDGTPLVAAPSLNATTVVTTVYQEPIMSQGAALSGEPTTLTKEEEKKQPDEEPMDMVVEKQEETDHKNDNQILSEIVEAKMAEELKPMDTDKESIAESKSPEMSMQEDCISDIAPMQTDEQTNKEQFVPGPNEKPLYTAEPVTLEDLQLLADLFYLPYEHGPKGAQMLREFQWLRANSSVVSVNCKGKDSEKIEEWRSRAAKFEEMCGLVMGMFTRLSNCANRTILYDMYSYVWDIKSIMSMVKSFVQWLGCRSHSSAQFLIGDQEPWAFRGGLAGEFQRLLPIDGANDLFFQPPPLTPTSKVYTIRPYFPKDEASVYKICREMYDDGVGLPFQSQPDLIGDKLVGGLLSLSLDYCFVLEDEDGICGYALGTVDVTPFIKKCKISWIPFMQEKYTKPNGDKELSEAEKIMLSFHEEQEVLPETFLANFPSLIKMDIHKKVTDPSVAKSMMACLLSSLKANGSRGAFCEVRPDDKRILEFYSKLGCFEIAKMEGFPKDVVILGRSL
Experimental: (§1) The inhibitory potency of compounds 5a–f was evaluated against recombinant hOGA and hHexB enzymes. The enzymes were prepared and purified as described previously. For inhibition of hOGA, fluorescent 4-MU-GlcNAc was used as the substrate. […] In the case of inhibition of hHexB, Michaelis–Menten kinetics were evaluated using pNP-GlcNAc as a colorimetric substrate. Inhibition constants (Ki) were determined by nonlinear regression analyses by employing the competitive inhibition model (cf. the Experimental section and Supplementary Materials).
(§2) The detailed protocol for the expression of hOGA and the subsequent purification procedure of the recombinant protein have been described in our previous work. The gene construct encoding the full-length human OGA fused to N-terminal His6-tag was kindly provided by Prof. D. Vocadlo (SFU, Burnaby, BC, Canada). Human β-N-acetylhexosaminidase B (hHexB) was expressed in Pichia pastoris, and the extracellularly produced enzyme was isolated according to the procedure described by Krejzová et al..
The inhibitory potency of compounds 5a–f was evaluated against recombinant enzymes hOGA and hHexB. In the case of hOGA inhibition, 4-MU-GlcNAc was used as a substrate at three concentrations (7 µM, 12 µM, and 25 µM) in the reaction mixtures containing 50 mM potassium phosphate buffer (pH 7.5), an inhibitor 5a–f in a final concentration of 0 to 750 nM, and 3 nM hOGA. In all cases, the enzyme and the inhibitors were preincubated at 37 °C, then the reaction was initiated by the addition of the substrate. All reactions were carried out in a fluorescence cuvette (Hellma Analytics, Müllheim, Germany), held in the thermostat cell holder of a Jasco FP-8200 fluorescence spectrophotometer (Easton, MD, USA) equipped with a Xe lamp light source. The excitation of the reactions was performed at […] and emission was detected at […] every 10 s for 10 min. All measurements were performed in triplicates. Initial velocities were determined and the reciprocal of initial velocities was plotted against inhibitor concentrations. The inhibitory mode of the compounds on hOGA was assessed by the Cornish–Bowden method, which involves the plotting of [S]/v0 vs. inhibitor concentrations. […] Inhibition constants (Ki) were determined according to the competitive model of the Dixon method by plotting the reciprocal of initial velocities vs. inhibitor concentrations. The intersection point of the linearly fitted lines gave Ki in nM.

hHexB = molecular target: T2, hHexB (Homo sapiens, UniProt P07686); test: hHexB inhibition, pNP-GlcNAc colorimetric substrate, Michaelis–Menten kinetics; format: biochemical; conditions: recombinant hHexB, pH 5.0, 35 °C
T2 construct: made in house; host or cells: Pichia pastoris
T2 sequence (P07686 122-556): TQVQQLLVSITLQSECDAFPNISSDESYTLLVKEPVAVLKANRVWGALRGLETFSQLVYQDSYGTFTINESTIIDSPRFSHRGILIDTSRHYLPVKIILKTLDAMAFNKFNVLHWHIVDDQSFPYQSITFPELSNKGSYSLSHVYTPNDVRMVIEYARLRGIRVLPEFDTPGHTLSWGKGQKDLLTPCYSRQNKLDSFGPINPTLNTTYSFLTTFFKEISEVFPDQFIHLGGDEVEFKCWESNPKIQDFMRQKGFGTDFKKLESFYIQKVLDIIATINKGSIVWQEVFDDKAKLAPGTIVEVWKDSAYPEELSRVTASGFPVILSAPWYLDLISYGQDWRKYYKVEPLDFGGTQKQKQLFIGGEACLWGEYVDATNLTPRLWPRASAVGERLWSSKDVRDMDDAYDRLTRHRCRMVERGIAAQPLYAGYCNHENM
Experimental: as §1, §2
In the case of hHexB inhibition, Michaelis–Menten kinetics were evaluated using pNP-GlcNAc as a substrate. The kinetic reactions took place in Eppendorf tubes in a final volume of 400 μL containing 24 nM HexB, pNP-GlcNAc substrate in the range of 0.1–3 mM, and various inhibitor concentrations ranging from 0 to 300 nM in 50 mM citrate-phosphate buffer, pH 5.0. The reactions were incubated at 35 °C and then 50 μL samples were taken every 60 s. Samples were mixed with a quenching solution of 150 μL 0.1 M Na2CO3 and the absorbance of the solutions was measured at 420 nm by a Tecan Sunrise plate reader (Männedorf, Switzerland). All measurements were performed in triplicates. Initial velocities were determined from the data points by linear fit, and then nonlinear regression analyses were performed using the competitive inhibition model to calculate Ki values. GraphPad Prism software was used for the calculations.

HexB = conditions: cited from earlier work
OGA = conditions: cited from earlier work
HexA/B = molecular target: HexA/B; set-up: method as in PMID 34186233; conditions: enzyme contains two predominant isozymes, Hex A and Hex B; cited from earlier work

Question: With `CC(=O)N[C@H]1C(=NNS(=O)(=O)c2ccc(C)cc2)O[C@H](CO)[C@@H](O)[C@@H]1O` [5a, 2-Acetamido-2-deoxy-D-glucono-1,5-lactone p-Toluenesulfonylhydrazone] as the compound, how does the “Ki(hHexB)/Ki(hOGA)” value (hOGA) read?
Answer: 0.27

Question: What about the Ki (hOGA) of the same compound?
Answer: 78 ± 1 nM

Question: And the Ki (hHexB)?
Answer: 21 ± 2 nM

Question: And the melting point?
Answer: 165 to 166 °C

Question: Which “Ki(hHexB)/Ki(hOGA)” value (hOGA) does the source give for `CC(=O)N[C@H]1C(=NNS(=O)(=O)c2ccc(C(F)(F)F)cc2)O[C@H](CO)[C@@H](O)[C@@H]1O` [5b, 2-Acetamido-2-deoxy-D-glucono-1,5-lactone p-Trifluoromethylbenzenesulfonylhydrazone] here?
Answer: 0.21

Question: What about the Ki (hOGA) of the same compound?
Answer: 230 ± 17 nM

Question: And the Ki (hHexB)?
Answer: 48 ± 4 nM

Question: And the melting point?
Answer: 175 to 176 °C (dec.)

Question: For `CC(=O)N[C@H]1C(=NNS(=O)(=O)c2ccc3ccccc3c2)O[C@H](CO)[C@@H](O)[C@@H]1O` [5e, 2-Acetamido-2-deoxy-D-glucono-1,5-lactone 2-Naphthalenesulfonylhydrazone], which “Ki(hHexB)/Ki(hOGA)” value (hOGA) is on record?
Answer: 1

Question: What about the Ki (hOGA) of the same compound?
Answer: ~30 nM and 30 nM

Question: What about the Ki (hHexB) of the same compound?
Answer: 30 ± 3 nM

Question: And the melting point?
Answer: 172 to 173 °C

Question: Which “Ki(hHexB)/Ki(hOGA)” value (hOGA) does the source give for `CC(=O)N[C@H]1C(=NNS(=O)(=O)c2ccc(Cl)cc2)O[C@H](CO)[C@@H](O)[C@@H]1O` [5d, 2-Acetamido-2-deoxy-D-glucono-1,5-lactone p-Chlorobenzenesulfonylhydrazone] here?
Answer: 0.56

Question: What about the Ki (hOGA) of the same compound?
Answer: 70 ± 3 nM

Question: What about the Ki (hHexB) of the same compound?
Answer: 39 ± 2 nM

Question: What about the melting point of the same compound?
Answer: 180 to 182 °C (dec.)

Question: For `CC(=O)N[C@H]1/C(=N/OC(=O)Nc2ccc(C)cc2)O[C@H](CO)[C@@H](O)[C@@H]1O` [I (4-Me-C6H4-)], which Ki (HexB) is on record?
Answer: 21 nM

Question: What about the Ki (OGA) of the same compound?
Answer: 28 nM

Question: Which Ki (HexA/B) does the source give for `CC(=O)N[C@H]1/C(=N/NC(=O)Nc2ccc(C)cc2)O[C@H](CO)[C@@H](O)[C@@H]1O` [II (4-Me-C6H4-)] here?
Answer: 332 nM

Question: What about the Ki (OGA) of the same compound?
Answer: 155 nM

Question: Which Ki (hOGA) does the source give for `CC(=O)N[C@H]1C(=NNS(=O)(=O)c2ccc(F)cc2)O[C@H](CO)[C@@H](O)[C@@H]1O` [5c, 2-Acetamido-2-deoxy-D-glucono-1,5-lactone p-Fluorobenzenesulfonylhydrazone] here?
Answer: 95 ± 11 nM

Question: What about the Ki (hHexB) of the same compound?
Answer: 45 ± 3 nM

Question: And the melting point?
Answer: 175 to 177 °C

Question: For `CC(=O)N[C@H]1/C(=N/OC(=O)Nc2ccc(Br)cc2)O[C@H](CO)[C@@H](O)[C@@H]1O` [I (4-Br-C6H4-)], which Ki (HexB) is on record?
Answer: 47 nM

Question: And the Ki (OGA)?
Answer: 56 nM

Question: What does the source list for `CC(=O)N[C@H]1/C(=N/OC(=O)Nc2ccccc2)O[C@H](CO)[C@@H](O)[C@@H]1O` [PUGNAc]?
Answer: Ki(hHexB)/Ki(hOGA) (hOGA): 0.8; Ki (HexB): 36 nM; Ki (OGA): 46 nM

Question: Which results are given for `CC(=O)N[C@H]1/C(=N/NC(=O)Nc2ccccc2)O[C@H](CO)[C@@H](O)[C@@H]1O` [II (Ph)]?
Answer: Ki (HexA/B): 205 nM; Ki (OGA): 190 nM

Question: Which results are given for `CC(=O)N[C@H]1/C(=N/NS(=O)(=O)c2cccc3ccccc23)O[C@H](CO)[C@@H](O)[C@@H]1O` [5f, 2-Acetamido-2-deoxy-D-glucono-1,5-lactone 1-Naphthalenesulfonylhydrazone]?
Answer: Ki(hHexB)/Ki(hOGA) (hOGA): 0.25; Ki (hOGA): 27 ± 7 nM; Ki (hHexB): 6.8 ± 1.8 nM; melting point: 145 to 147 °C

Question: What does the source list for `CC(=O)N[C@H]1C(=NNC(=O)Nc2ccc3ccccc3c2)O[C@H](CO)[C@@H](O)[C@@H]1O` [2-acetamido-2-deoxy-D-glucono-1,5-lactone 4-(2-naphthyl)-semicarbazone]?
Answer: Ki (HexA/B): 47 nM; Ki(hHexB)/Ki(hOGA) (hOGA): 1.3; Ki (OGA): 36 nM

Question: What does the source list for `CC(=O)N[C@H]1/C(=N/NC(=O)Nc2ccc(Cl)cc2)O[C@H](CO)[C@@H](O)[C@@H]1O` [II (4-Cl-C6H4-)]?
Answer: Ki (HexA/B): 170 nM; Ki (OGA): 83 nM
